According to the NIST ThermoML archive (doi:10.1021/je060200b):

How the values were obtained:
[1] = molar heat capacity at constant pressure; conditions: 101 kPa, Liquid
[2] = 101 kPa, Liquid; for speed of sound: Pulse-echo method; for mass density: Vibrating tube method
[3] = molar heat capacity at constant pressure; xn = mol fraction of the nth substance listed; conditions: 101 kPa, Liquid, x2 = 0
[4] = xn = mol fraction of the nth substance listed; conditions: 101 kPa, Liquid, x2 = 0; for mass density: Vibrating tube method; for speed of sound: Pulse-echo method

BrCCCCCBr [1,5-dibromopentane]
Conditions | mass density [kg/m3] | molar heat capacity at constant pressure [J/K/mol] | speed of sound [m/s]
[1], 293.15 K | – | 219.76 | –
[1], 294.15 K | – | 219.98 | –
[1], 295.15 K | – | 220.19 | –
[1], 296.15 K | – | 220.41 | –
[1], 297.15 K | – | 220.66 | –
[1], 298.15 K | – | 220.84 | –
[1], 299.15 K | – | 221.1 | –
[1], 300.15 K | – | 221.28 | –
[1], 301.15 K | – | 221.49 | –
[1], 302.15 K | – | 221.73 | –
[1], 303.15 K | – | 221.95 | –
[1], 304.15 K | – | 222.17 | –
[1], 305.15 K | – | 222.41 | –
[1], 306.15 K | – | 222.63 | –
[1], 307.15 K | – | 222.85 | –
[1], 308.15 K | – | 223.09 | –
[1], 309.15 K | – | 223.31 | –
[1], 310.15 K | – | 223.56 | –
[1], 311.15 K | – | 223.78 | –
[1], 312.15 K | – | 224.03 | –
[1], 313.15 K | – | 224.26 | –
[2], 292.38 K | – | – | 1149.5
[2], 292.52 K | 1699.54 | – | –
[2], 298.05 K | 1691.87 | – | –
[2], 298.37 K | – | – | 1133
[2], 303.06 K | 1684.89 | – | –
[2], 303.39 K | – | – | 1119.3
[2], 308.08 K | 1678.03 | – | –
[2], 308.38 K | – | – | 1105.8
[2], 314.36 K | – | – | 1089.7
[2], 314.66 K | 1668.75 | – | –

CCCCCCC [heptane]
Conditions | mass density [kg/m3] | molar heat capacity at constant pressure [J/K/mol] | speed of sound [m/s]
[1], 293.15 K | – | 222.87 | –
[1], 294.15 K | – | 223.23 | –
[1], 295.15 K | – | 223.6 | –
[1], 296.15 K | – | 223.97 | –
[1], 297.15 K | – | 224.35 | –
[1], 298.15 K | – | 224.72 | –
[1], 299.15 K | – | 225.1 | –
[1], 300.15 K | – | 225.47 | –
[1], 301.15 K | – | 225.87 | –
[1], 302.15 K | – | 226.22 | –
[1], 303.15 K | – | 226.61 | –
[1], 304.15 K | – | 227 | –
[1], 305.15 K | – | 227.4 | –
[1], 306.15 K | – | 227.75 | –
[1], 307.15 K | – | 228.14 | –
[1], 308.15 K | – | 228.54 | –
[1], 309.15 K | – | 228.95 | –
[1], 310.15 K | – | 229.3 | –
[1], 311.15 K | – | 229.71 | –
[1], 312.15 K | – | 230.11 | –
[1], 313.15 K | – | 230.51 | –
[2], 292.7 K | 684.18 | – | –
[2], 292.84 K | – | – | 1153.7
[2], 297.98 K | 679.88 | – | –
[2], 298.84 K | – | – | 1127.7
[2], 302.94 K | 675.72 | – | –
[2], 303.8 K | – | – | 1106.4
[2], 308.06 K | 671.47 | – | –
[2], 308.78 K | – | – | 1085.1
[2], 314.1 K | 666.39 | – | –
[2], 314.87 K | – | – | 1059.1

CCCCCCC [heptane] + BrCCCCCBr
Conditions | mass density [kg/m3] | molar heat capacity at constant pressure [J/K/mol] | speed of sound [m/s]
[3], 293.15 K | – | 222.87 | –
[3], 294.15 K | – | 223.23 | –
[3], 295.15 K | – | 223.6 | –
[3], 296.15 K | – | 223.97 | –
[3], 297.15 K | – | 224.35 | –
[3], 298.15 K | – | 224.72 | –
[3], 299.15 K | – | 225.1 | –
[3], 300.15 K | – | 225.47 | –
[3], 301.15 K | – | 225.87 | –
[3], 302.15 K | – | 226.22 | –
[3], 303.15 K | – | 226.61 | –
[3], 304.15 K | – | 227 | –
[3], 305.15 K | – | 227.4 | –
[3], 306.15 K | – | 227.75 | –
[3], 307.15 K | – | 228.14 | –
[3], 308.15 K | – | 228.54 | –
[3], 309.15 K | – | 228.95 | –
[3], 310.15 K | – | 229.3 | –
[3], 311.15 K | – | 229.71 | –
[3], 312.15 K | – | 230.11 | –
[3], 313.15 K | – | 230.51 | –
[4], 292.7 K | 684.18 | – | –
[4], 292.84 K | – | – | 1153.7
[4], 297.98 K | 679.88 | – | –
[4], 298.84 K | – | – | 1127.7
[4], 302.94 K | 675.72 | – | –
[4], 303.8 K | – | – | 1106.4
[4], 308.06 K | 671.47 | – | –
[4], 308.78 K | – | – | 1085.1
[4], 314.1 K | 666.39 | – | –
[4], 314.87 K | – | – | 1059.1
